Test results reported in ChEMBL document CHEMBL1201862, “PubChem BioAssay data set” (2004).
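Tested at 5 concentrations; 48 h exposure; 96-well plates; endpoints linearly interpolated, else capped at highest concentration. GI50 marks 50% less growth.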 The source made the active and inactive calls. Rule as the data show it: active = GI50 up to about 1.1 µM and inactive = higher.

Key:
Assay in all cases: NCI anticancer screen, dose series, 48 h
A498 = test system: A498
A549 = test system: A549
CAKI-1 = test system: CAKI-1
CCRF-CEM = test system: CCRF-CEM
DU-145 = test system: DU-145
HL-60 = test system: HL-60
KM12 = test system: KM12
M14 = test system: M14
MCF7 = test system: MCF7
MDA-MB-231 = test system: MDA-MB-231
MDA-N = test system: MDA-N
NCI-H226 = test system: NCI-H226
NCI-H460 = test system: NCI-H460
NCI/ADR-RES = test system: NCI/ADR-RES
RXF 393 = test system: RXF 393
SF-268 = test system: SF-268
SNB-75 = test system: SNB-75
U-251 = test system: U-251
SF-539 = test system: SF-539
RPMI-8226 = test system: RPMI-8226

Row | SMILES | GI50 (A498) | GI50 (A549) | GI50 (CAKI-1) | GI50 (CCRF-CEM) | GI50 (DU-145) | GI50 (HL-60) | GI50 (KM12) | GI50 (M14) | GI50 (MCF7) | GI50 (MDA-MB-231) | GI50 (MDA-N) | GI50 (NCI-H226) | GI50 (NCI-H460) | GI50 (NCI/ADR-RES) | GI50 (RXF 393) | GI50 (SF-268) | GI50 (SNB-75) | GI50 (U-251) | GI50 (SF-539) | GI50 (RPMI-8226)
1 | Oc1ccc(-c2cn3cc(C(F)(F)F)ccc3n2)cc1 | 70.1 µM (inactive) | 44.8 µM (inactive) | 60.1 µM (inactive) | 15.9 µM (inactive) | 30.6 µM (inactive) | 9.18 µM (inactive) | 43.3 µM (inactive) | 51.3 µM (inactive) | 26.7 µM (inactive) | > 100 µM (inactive) | 43.7 µM (inactive) | 74.3 µM (inactive) | 32.1 µM (inactive) | 29.9 µM (inactive) | 31.6 µM (inactive) | 89.1 µM (inactive) | 6.84 µM (inactive) | 41.1 µM (inactive) |  | 
2 | CC1OC(OC2C(O[C@H]3CC[C@@]4(C)C(=CC[C@H]5[C@@H]6C[C@@H]7O[C@]8(CC[C@H](C)CN8)[C@@H](C)[C@@H]7[C@@]6(C)CC[C@@H]54)C3)OC(CO)C(O)C2OC2OC(CO)C(O)C(O)C2O)C(O)C(O)C1O (stereo not given in full) | 26.9 µM (inactive) | 18.1 µM (inactive) | 19.2 µM (inactive) | 21.6 µM (inactive) | 19.4 µM (inactive) | 15.5 µM (inactive) | 20 µM (inactive) | 18.4 µM (inactive) | 16.9 µM (inactive) | 21.4 µM (inactive) | 20.7 µM (inactive) | 17.4 µM (inactive) | 17.8 µM (inactive) | 16.4 µM (inactive) | 15.8 µM (inactive) | 16.6 µM (inactive) | 14.5 µM (inactive) | 37.2 µM (inactive) | 16.7 µM (inactive) | 
3 | COP(=O)(/C=C/C(NC(=O)C(Cl)(Cl)Cl)c1ccccc1)OC (stereo not given) | > 100 µM (inactive) | > 100 µM (inactive) | > 100 µM (inactive) |  | > 100 µM (inactive) | > 100 µM (inactive) | > 100 µM (inactive) | > 100 µM (inactive) | > 100 µM (inactive) | > 100 µM (inactive) | > 100 µM (inactive) | > 100 µM (inactive) | > 100 µM (inactive) | > 100 µM (inactive) | > 100 µM (inactive) | > 100 µM (inactive) | > 100 µM (inactive) | > 100 µM (inactive) |  | > 100 µM (inactive)
4 | CC(C)=CCc1cc(C2COc3cc4c(c(O)c3C2=O)C=CC(C)(C)O4)c(O)cc1O (stereo not given) | 16.5 µM (inactive) | 12.7 µM (inactive) | 17.2 µM (inactive) | 7.53 µM (inactive) | 14.5 µM (inactive) | 8.63 µM (inactive) | 14.9 µM (inactive) | 13.4 µM (inactive) | 11.8 µM (inactive) | 14.2 µM (inactive) | 14.4 µM (inactive) |  | 14.3 µM (inactive) | 22.6 µM (inactive) | 6.59 µM (inactive) | 13.2 µM (inactive) | 19.1 µM (inactive) | 16 µM (inactive) | 16.5 µM (inactive) | 6.43 µM (inactive)
5 | Cc1c(O)c(C)c2c(C)cn(C(=O)C(C)(C)C)c2c1C | 16.5 µM (inactive) | 22.9 µM (inactive) |  | 19.8 µM (inactive) | 20.8 µM (inactive) | 18.7 µM (inactive) | 14 µM (inactive) | 16.7 µM (inactive) | 3.27 µM (inactive) | 15.2 µM (inactive) | 21.2 µM (inactive) | 12.1 µM (inactive) | 29.5 µM (inactive) | 34.1 µM (inactive) | 12.4 µM (inactive) | 31.4 µM (inactive) | 0.0201 µM (active) | 27.3 µM (inactive) | 16.4 µM (inactive) | 29.6 µM (inactive)
6 | Cc1ccc2c(c1)C(=S)N1CSCC1c1nncn1-2 (stereo not given) | > 100 µM (inactive) | > 100 µM (inactive) | > 100 µM (inactive) | > 100 µM (inactive) | > 100 µM (inactive) |  | > 100 µM (inactive) | > 100 µM (inactive) | > 100 µM (inactive) | > 100 µM (inactive) | > 100 µM (inactive) | > 100 µM (inactive) | > 100 µM (inactive) | > 100 µM (inactive) | > 100 µM (inactive) | > 100 µM (inactive) | > 100 µM (inactive) | > 100 µM (inactive) |  | > 100 µM (inactive)
7 | CC(=N/NC(=S)N1CCCCC1)/C(C)=N\NC(=S)N1CCCCC1 | 1.5 µM (inactive) | 1.73 µM (inactive) | 1.71 µM (inactive) |  | 1.61 µM (inactive) |  | 1.82 µM (inactive) | 2.19 µM (inactive) | 1.91 µM (inactive) | 2 µM (inactive) | 2.47 µM (inactive) | 1.57 µM (inactive) | 1.74 µM (inactive) | 2.42 µM (inactive) | 1.59 µM (inactive) | 1.67 µM (inactive) | 1.45 µM (inactive) | 1.97 µM (inactive) | 2.35 µM (inactive) | 2.19 µM (inactive)
8 | COC(=O)CCC1(C)C2CCC1/C(=N/O)C2 (stereo not given) | > 100 µM (inactive) | > 100 µM (inactive) | > 100 µM (inactive) | > 100 µM (inactive) | > 100 µM (inactive) |  | > 100 µM (inactive) | > 100 µM (inactive) | > 100 µM (inactive) | > 100 µM (inactive) | > 100 µM (inactive) | > 100 µM (inactive) |  | > 100 µM (inactive) | > 100 µM (inactive) | > 100 µM (inactive) | > 100 µM (inactive) | > 100 µM (inactive) |  | > 100 µM (inactive)
9 | CCCCCC(/C=N/NC(N)=S)C(O)(C(F)(F)F)C(F)(F)F (stereo not given) | > 10 µM (inactive) | > 10 µM (inactive) | > 10 µM (inactive) | > 10 µM (inactive) | > 10 µM (inactive) |  | > 10 µM (inactive) | > 10 µM (inactive) | > 10 µM (inactive) | > 10 µM (inactive) | > 10 µM (inactive) | > 10 µM (inactive) | > 10 µM (inactive) | > 10 µM (inactive) | > 10 µM (inactive) | > 10 µM (inactive) | > 10 µM (inactive) | > 10 µM (inactive) | > 10 µM (inactive) | 
10 | COc1cc(S(=O)(=O)Nc2nc(-c3ccc(N)cc3)cs2)ccc1Cl | 84.3 µM (inactive) | 51.5 µM (inactive) | 73.5 µM (inactive) | 48.5 µM (inactive) | > 100 µM (inactive) | 45.7 µM (inactive) | 72.1 µM (inactive) | 59.8 µM (inactive) | 36.8 µM (inactive) | > 100 µM (inactive) | 55.8 µM (inactive) | 41.7 µM (inactive) | 84.9 µM (inactive) | 89.5 µM (inactive) | 38.1 µM (inactive) | 75.7 µM (inactive) | > 100 µM (inactive) | 63 µM (inactive) | > 100 µM (inactive) | 
11 | O=c1[nH]c(=O)n(C2CC(O)C(CO)O2)c2nc3ccc4cc5ccccc5cc4c3nc12 (stereo not given) | > 100 µM (inactive) | > 100 µM (inactive) | > 100 µM (inactive) | > 100 µM (inactive) | > 100 µM (inactive) |  | 51.6 µM (inactive) | > 100 µM (inactive) | > 100 µM (inactive) | > 100 µM (inactive) | > 100 µM (inactive) | > 100 µM (inactive) |  | > 100 µM (inactive) | > 100 µM (inactive) | > 100 µM (inactive) | > 100 µM (inactive) | > 100 µM (inactive) | > 100 µM (inactive) | > 100 µM (inactive)
12 | COc1cc(OC)c2c3c(OC)cc(OC)c4c(=O)c(O)c(C[C@@H](C)O)c(c5c(C[C@@H](C)O)c(O)c(=O)c1c25)c43 | 28.8 µM (inactive) | 36.7 µM (inactive) | 18.8 µM (inactive) |  | 30.8 µM (inactive) | 11.3 µM (inactive) | 23.2 µM (inactive) | 17.4 µM (inactive) | 21.2 µM (inactive) | 1.89 µM (inactive) | 18.7 µM (inactive) | 19.6 µM (inactive) | 27.2 µM (inactive) | 30.3 µM (inactive) | 22.4 µM (inactive) | 18.9 µM (inactive) | 14.2 µM (inactive) | 23.5 µM (inactive) | 24.8 µM (inactive) | 
13 | Cc1ccc(CC2(C(=O)O)Cc3ccc(C)cc3C2)cc1 (stereo not given) | > 100 µM (inactive) | 72.9 µM (inactive) | > 100 µM (inactive) | 49.2 µM (inactive) | > 100 µM (inactive) | > 100 µM (inactive) | 89.7 µM (inactive) | > 100 µM (inactive) | > 100 µM (inactive) | 89.1 µM (inactive) | > 100 µM (inactive) | > 100 µM (inactive) | > 100 µM (inactive) | > 100 µM (inactive) |  | > 100 µM (inactive) | > 100 µM (inactive) | 71.3 µM (inactive) | > 100 µM (inactive) | 69.3 µM (inactive)
14 | O=C(O)CCNc1[nH]cnc2ncnc1-2 | > 100 µM (inactive) | > 100 µM (inactive) | > 100 µM (inactive) | > 100 µM (inactive) | > 100 µM (inactive) | > 100 µM (inactive) | > 100 µM (inactive) | > 100 µM (inactive) | > 100 µM (inactive) | > 100 µM (inactive) | > 100 µM (inactive) | > 100 µM (inactive) | > 100 µM (inactive) | > 100 µM (inactive) | > 100 µM (inactive) | > 100 µM (inactive) | > 100 µM (inactive) | > 100 µM (inactive) |  | > 100 µM (inactive)
15 | COc1cccc(-c2nc(O)c3ccccc3n2)c1OC | > 100 µM (inactive) | > 100 µM (inactive) | > 100 µM (inactive) | > 100 µM (inactive) | > 100 µM (inactive) |  | > 100 µM (inactive) | > 100 µM (inactive) | > 100 µM (inactive) | 74.3 µM (inactive) | > 100 µM (inactive) | > 100 µM (inactive) | > 100 µM (inactive) | > 100 µM (inactive) | > 100 µM (inactive) | > 100 µM (inactive) | 46.1 µM (inactive) | > 100 µM (inactive) |  | 2.99 µM (inactive)
